Experiments:
THP1 cells = assay: RNA-seq transcriptome profiling of THP1 cells in high glucose (differential expression, GO, GSEA); assay type: cell-based, human; details: for biological processes (BPs) suppressed (GSEA): HG treated THP1 cells; for number of downregulated genes, compound+HG versus HG / number of upregulated genes, compound+HG versus HG / rank of TXNIP gene among differentially expressed genes / number of HG-induced genes inhibited by the compound (overlap): THP1, 25 mM glucose; for number of downregulated genes, compound+HG versus HG / number of upregulated genes, compound+HG versus HG / rank of TXNIP gene among differentially expressed genes / functions of downregulated genes (Gene ontology analysis): 5 uM; for number of downregulated genes, compound+HG versus HG / number of upregulated genes, compound+HG versus HG / functions of downregulated genes (Gene ontology analysis): fold change ≥2 and FDR<5%; for rank of TXNIP gene among differentially expressed genes: p-value close to 0; for number of HG-induced genes inhibited by the compound (overlap): 72 hours, 2.5 um compound, FC >2 or <0.5, FDR-adjusted p <0.05; for number of HG upregulated genes downregulated by both C30 and C38: THP1, FC≥1.5 & FDR<5%; for functions of downregulated genes (Gene ontology analysis) / normalized enrichment score (NES), HG-downregulated genes (GSEA) / normalized enrichment score (NES), HG-upregulated genes (GSEA): THP1 in HG; for normalized enrichment score (NES), HG-downregulated genes (GSEA) / normalized enrichment score (NES), HG-upregulated genes (GSEA): with versus without compound
Procedure: FIGS. 10A-10C. C30 and C38 inhibit the same subset of genes induced by high glucose (HG). THP1 cell were cultured in RPMI 1640 medium under 25 mM glucose for 72 hours with […] C30 or C38. Total RNA was prepared and sent for RNA-seq. Differential expression analysis was conducted as described in the Methods. […] FIG. 10A: Overlap between HG-induce genes and C30-inhibited genes in THP1 cells. FIG. 10B: Overlap between HG-induce genes and C38-inhibited genes in THP1 cells. FIG. 10C: Overlap between common genes from FIG. 10A (60 genes) and common genes from FIG. 10B (64 genes).
FIGS. 11A-11B. FIG. 11A: Heatmap of 60 high glucose-responsive and C30/C38-inhibited genes. Differential expression was calculated using these counts with edgeR (5, 6) version 3.0. After correcting for differences in library sizes, a fold change of >1.5 and a p-value of <0.05 were applied to select expressed genes. Overlapped genes were used for generating heatmap using Java TreeView. NG: THP1 under 5 mM glucose; HG: THP1, 25 mM glucose; C30: THP1, 25 mM glucose, 5 uM C30; C38: THP1, 25 mM glucose, 5 uM C38. All are replicates. From top to bottom: HSD11B1, EGR1, NFE2, CCL2, TIFAB, SH2D2A, UHRF1, CD52, TIMP3, TNF, S100P, PAQR4, LY6E, VPS9D-AS, RNASE3, MIR4258, GAS6, LIMD2, MBOAT7, CFD, PKMYT1, CHAC1, MFNG, DEFB1, ICAM2, NT5DC2, GPR35, HINT2, SEPT5-GP1BB, NRSN2, CDH24, SLC37A2, ADAT3, LST1, SPNS3, LTB, H2AFX, FUOM, FAM163A, BATF3, TMEM160, CITED4, MIR3661, TNFSF14, SLC6A9, TONSL, AVEN, SUSD3, TSPO, DDIT4, CKB, SLC22A31, HAAO, MF5SD3, SLC38A5, SIGMAR1, RGMA, DNPH1, ADGRE5, C20orf24, GATA2, RAB37, GDPD5, GAREM2, PIGQ, IMPA2, CRYBB2P1, UCP2, RELB, FOXL2, STC2, HOXA11-AS, MIR1282, RTN2, ZNF511, STARD10, NRM, NF2, ITGB7, POMGNT, KLF10, KLF2, NECAB2, C6orf223, IGFBP4, ACP2, TMEM161A, RHBDD2, YDJC, G0S2, FAM20C, TKTL1, PDIA3P1, HCST, FBXL15, LINC00116, FLNA, TXNIP, MIR3687-1, ARRDC4.
FIG. 21. Volcano plots on gene expression changes induced by TXNIP inhibitors (C30 or C38) under high glucose (HG) conditions in THP1 cells. Gene expression in THP cells grown in HG were treated with and without C30 or C38 and profiled by RNAseq. Expression of RefSeq genes with rpkm≥5 in at least one sample were TMM-normalized and compared in cells treated with HG plus C30 or C38 (C30+HG or C38+HG) versus the cells treated with HG alone using edgeR (v 3.28.1). […] Each dot represents one gene with fold change (in log 2 format) in C30/C38+HG sample vs. HG as x-axis and significance level (in −log 10 format) as y-axis.
FIG. 22. Enriched BPs on DEGs induced by TXNIP inhibitors. […] The enriched BPs were identified at FDR<5% using enrichGO R package and up to 15 BPs with the most significant enrichment are shown as horizontal bar plots. In each bar, number of DEGs in the BP is presented by y-axis and the enrichment significance is represented by different grey-scale colors indicated in the color bar.
FIG. 24. Impact of C30/C38 treatment on HG-regulated genes by GSEA analysis. […] In the analysis for each treatment (C30 or C38), all the expressed genes were ranked based on the signed significance levels, −log10 Pvalue with signs determined by FC (positive if FC>1 and negative if FC<1), on each gene's expression difference between samples with and without treatment. The overall gene expression difference in THP1 cells (in HG condition) treated with or without C30/C38 on these two genesets were analyzed using pre-ranked GSEA analysis.
FIG. 25. […] All the expressed genes were ranked based on the signed significance levels of each gene's expression difference (C30+HG vs. HG). […] In the plot shown, each bubble represents one geneset. […] Genesets related to BPs are represented by solid black bubbles and related to HG regulated genesets are shown as hollow black bubbles.
FIG. 26. […] All the expressed genes were ranked based on the signed significance levels of each gene's expression difference (C38+HG vs. HG). […] In the plot, each bubble represents one geneset. […]

TNF-α mRNA = TNF-α mRNA expression in murine MIN6 pancreatic beta cells (RT-PCR); assay type: cell-based, mouse; details: 25 mM glucose, 72 hours
Procedure: FIGS. 4A-4B. […] MIN6 cells were cultured under 25 mM glucose with C30 and C38 at the indicated concentrations for 72 hours. Total RNA was prepared. RT-PCR was performed and data shown are the mean±SEM from triplicates. Statistical analysis was performed for each column vs. HG DMSO using one-way ANOVA: *p<0.0001. […] MIN6 cells were cultured under 25 mM glucose and treated with C30 and C38 at the indicated concentrations for 72 hours. Total RNA was prepared. RT-PCR was performed and data shown are the mean±SEM from triplicates. Statistical analysis was performed for each column vs. HG DMSO using one-way ANOVA: *p<0.0001.
To ascertain the relevance to pancreatic beta cells, we tested the effects of the lead compounds on key target gene mRNA levels in murine MIN6 pancreatic beta cells.
RNA extraction and quantitative RT-PCR. RNA was extracted using the Direct-zol™ RNA MiniPrep Plus (Zymo Research). Reverse transcription of RNA samples into cDNA was performed using the GeneAmp RNA PCR Kit (Applied Biosystems), dNTP (from Roche Applied Science), Rnase inhibitor, MULV Reverse Transcriptase and Random hexamers reagent (all from Invitrogen). Diluted cDNA was quantified using real-time PCR performed with Power SYBR Green qPCR MasterMix (Applied Biosystem) and 7500 real-time PCR system (Applied Biosystems). The HPRT1 gene was used as an internal control.

Row | Compound | biological processes (BPs) suppressed (GSEA) (THP1 cells) | number of downregulated genes, compound+HG versus HG (THP1 cells) [genes] | number of upregulated genes, compound+HG versus HG (THP1 cells) [genes] | rank of TXNIP gene among differentially expressed genes (THP1 cells) | number of HG-induced genes inhibited by the compound (overlap) (THP1 cells) [genes] | number of HG upregulated genes downregulated by both C30 and C38 (THP1 cells) [genes] | functions of downregulated genes (Gene ontology analysis) (THP1 cells) | normalized enrichment score (NES), HG-downregulated genes (GSEA) (THP1 cells) | normalized enrichment score (NES), HG-upregulated genes (GSEA) (THP1 cells) | TNF-α mRNA expression (TNF-α mRNA)
1 | COc1cc(N2CC[C@@H](c3ccc4ccccc4c3)[C@H](O)C2)nc(N)n1 [Compound C30] | strongly suppresses BPs related to DNA replication, cell cycle, lipopolysaccharide metabolic process | 571 | 746 | most-significantly downregulated gene | 60 | 23 | substantially inhibit functions related to immune/inflammation response | 1.63 | −1.84 | tended to increase TNF-α mRNA expression
2 | c1ccc(CCNc2ncnc3c2oc2ccccc23)cc1 [Compound C38] | suppressing BPs involved in metabolic process, DNA replication, immune response, splicing | 537 | 741 | most-significantly downregulated gene | 64 | 23 | substantially inhibit functions related to immune/inflammation response | 1.83 | −1.98 | tended to increase TNF-α mRNA expression

Source: US11964984B2, “TXNIP-TRX complex inhibitors and methods of using the same” (CITY OF HOPE, priority 2020, dated 2024)
